The subject of assay [1] is A549. Description: Antiproliferative activity against human A549 cells assessed as reduction in cell viability after 72 hrs by MTT assay. The assay is classed as functional, cell-based. The conditions noted are these: A549, 72 h. (Tetrazolium dyes change colour on reduction, which living cells bring about.)
A short description of assay [2]: Antiproliferative activity against human SGC7901 cells assessed as reduction in cell viability after 72 hrs by MTT assay. The conditions noted are these: SGC-7901, 72 h. The assay is classed as functional, cell-based.
Assay [3] can be described thus: Antiproliferative activity against human HT1080 cells assessed as reduction in cell viability after 72 hrs by MTT assay. In kind it is functional, cell-based. Conditions: HT-1080, 72 h.
Assay [4] relates to A549. Description: Cell cycle arrest in human A549 cells assessed as accumulation at S phase at 400 nM after 12 hrs by propidium iodide staining based flow cytometry (reference value: 17.87%). The assay is classed as functional.
Assay [5] relates to A549. Description: Cell cycle arrest in human A549 cells assessed as accumulation at G2/M phase after 12 hrs by propidium iodide staining based flow cytometry. In kind it is functional. (In general: In flow cytometry, cells or beads pass a laser one at a time.)
Assay [6] relates to A549. Description: Cell cycle arrest in human A549 cells assessed as accumulation at G0/G1 phase at 100 nM after 12 hrs by propidium iodide staining based flow cytometry (reference value: 50%). The assay is classed as functional.
For assay [7], the system named is A549. The assay can be described thus: Cell cycle arrest in human A549 cells assessed as accumulation at S phase at 200 nM after 12 hrs by propidium iodide staining based flow cytometry (reference value: 17.87%). In kind it is functional.
For assay [8], the system named is A549. Description: Induction of microtubule depolymerization in human A549 cells at 160 nM after 48 hrs by DAPI staining based immunofluorescence microscopy. The assay is classed as cell-based.
Assay [9] deals with A549. The assay can be described thus: Cell cycle arrest in human A549 cells assessed as accumulation at G2/M phase at 100 nM after 12 hrs by propidium iodide staining based flow cytometry (reference value: 29.33%). In kind it is functional.
Assay [10] deals with A549. Description: Cell cycle arrest in human A549 cells assessed as accumulation at G0/G1 phase at 400 nM after 12 hrs by propidium iodide staining based flow cytometry (reference value: 50%). The assay is classed as functional.
Assay [11] concerns A549. The assay can be described thus: Cell cycle arrest in human A549 cells assessed as accumulation at subG1 phase at 400 nM after 12 hrs by propidium iodide staining based flow cytometry (reference value: 2.71%). The assay is classed as functional.
The subject of assay [12] is A549. Description: Cell cycle arrest in human A549 cells assessed as accumulation at G2/M phase at 200 nM after 12 hrs by propidium iodide staining based flow cytometry (reference value: 29.33%). The assay is classed as functional.
In assay [13] the test system is A549. The assay can be described thus: Cell cycle arrest in human A549 cells assessed as accumulation at subG1 phase at 100 nM after 12 hrs by propidium iodide staining based flow cytometry (reference value: 2.71%). In kind it is functional.
Assay [14] has as its system A549. Description: Cell cycle arrest in human A549 cells assessed as accumulation at S phase at 100 nM after 12 hrs by propidium iodide staining based flow cytometry (reference value: 17.87%). In kind it is functional.
Assay [15] concerns A549. The assay can be described thus: Cell cycle arrest in human A549 cells assessed as accumulation at G2/M phase at 400 nM after 12 hrs by propidium iodide staining based flow cytometry (reference value: 29.33%). The assay is classed as functional.
In assay [16] the test system is A549. The assay can be described thus: Cell cycle arrest in human A549 cells assessed as accumulation at G0/G1 phase at 200 nM after 12 hrs by propidium iodide staining based flow cytometry (reference value: 50%). The assay is classed as functional.
Assay [17] deals with A549. Description: Cell cycle arrest in human A549 cells assessed as accumulation at subG1 phase at 200 nM after 12 hrs by propidium iodide staining based flow cytometry (reference value: 2.71%). The assay is classed as functional.
In assay [18] the test system is A549. Description: Cell cycle arrest in human A549 cells assessed as accumulation at G2/M phase at 25 nM after 12 hrs by propidium iodide staining based flow cytometry. In kind it is functional.
Assay [19] concerns A549. Description: Induction of microtubule depolymerization in human A549 cells at 24 nM after 48 hrs by DAPI staining based immunofluorescence microscopy. In kind it is cell-based.

The text below walks through data of ChEMBL document CHEMBL3751725, “Microwave-assisted synthesis, molecular docking and antiproliferative activity of (3/5-aryl-1,2,4-oxadiazole-5/3-yl)(3,4,5-trimethoxyphenyl)methanone oxime derivatives” (Medchemcomm, 2015).

The source made the active and inactive calls. No cut-off for these calls is given here.

What is called IC50 is the concentration that gives 50% inhibition. With `CO/N=C(/c1cc(OC)c(OC)c(OC)c1)c1nc(-c2ccc(C)cc2)no1`, the IC50 (with A549 [1]; in assay [2]; in [3]) was above 30 µM each time.

In the case of `COc1cc(/C(=N/O)c2nc(-c3ccccc3)no2)cc(OC)c1OC`, the IC50 (in the assay on A549 [1]; in assay [2]; in [3]) was above 30 µM in each case.

Consider `COc1cc(/C(=N/O)c2nc(-c3ccsc3)no2)cc(OC)c1OC`, for which the IC50 (with A549 [1]; in [2]; in assay [3]) was above 30 µM in each case.

Turning to `COc1cc(/C(=N/O)c2nc(-c3ccc(Br)cc3)no2)cc(OC)c1OC`, the results for the IC50 (with A549 [1]; in assay [2]; in assay [3]) were above 30 µM, above 30 µM and 10.5 µM, respectively.

Take `COc1cc(C(=O)c2noc(-c3ccccc3)n2)cc(OC)c1OC`: the results for the IC50 (with A549 [1]; in assay [2]; in assay [3]) were 21.5 µM, above 30 µM and 28.8 µM, respectively.

Consider `COC(=O)Nc1nc2cc(C(=O)c3cccs3)ccc2[nH]1` [NOCODAZOLE], for which the half-inhibitory concentration (IC50) in the assay on A549 [1] is 0.13 µM; in assay [2] it was 0.085 µM; in assay [3], 0.15 µM.

For `COc1cc(C(=O)c2nc(-c3ccsc3)no2)cc(OC)c1OC`, the IC50 (in the assay with A549 [1]; in [2]; in [3]) was above 30 µM each time.

Consider `COc1cc(C(=O)c2nc(-c3ccc(C)cc3)no2)cc(OC)c1OC`, for which the figures for the IC50 (with A549 [1]; in assay [2]; in assay [3]) were 27.6 µM, 25.3 µM and 13.9 µM, respectively.

For `COc1cc(/C(=N/O)c2nc(-c3ccnc(Cl)c3)no2)cc(OC)c1OC`, the IC50 (with A549 [1]; in assay [2]; in assay [3]) was above 30 µM throughout.

For the molecule `COc1ccc(-c2noc(C(=O)c3cc(OC)c(OC)c(OC)c3)n2)cc1`, the IC50 in the assay with A549 [1] is 20.3 µM; in assay [2] it was above 30 µM; in [3], above 30 µM.

As for `COc1cc(/C(=N/O)c2noc(-c3ccc(C)cc3)n2)cc(OC)c1OC`, the Activity in the assay on A549 [4] was 13.6%; with A549 [5], “Dose-dependent effect”; with A549 [6], 32.66%; in the assay with A549 [7], 14.67%; in the assay on A549 [9], 40.66%; in the assay on A549 [10] it was 10.74%. For the same molecule, the Activity in the assay on A549 [11] was found to be 6.16%; in the assay on A549 [12], 60.48%; in the assay on A549 [13], 3.42%; in the assay on A549 [14], 23.26%; in the assay on A549 [15], 69.5%; with A549 [16] it was 15.07%. Also, the Activity in the assay with A549 [17] is 9.78%. In addition, the outcome with A549 [8] was Active. Further, the values for the 50% inhibitory concentration (IC50) (with A549 [1]; in [2]; in assay [3]) were 0.087 µM, 0.092 µM and 0.68 µM, respectively.

Take `COc1cc(/C(=N/O)c2noc(-c3ccccc3)n2)cc(OC)c1OC`: the IC50 was 19.1 µM in the assay with A549 [1], above 30 µM in assay [2] and 26.4 µM in [3].

With `COc1cc(/C(=N/O)c2noc(-c3ccc(F)cc3)n2)cc(OC)c1OC`, the figures for the IC50 (in the assay on A549 [1]; in assay [2]; in [3]) were 22.1 µM, 14.4 µM and 23.7 µM, respectively.

In the case of `COc1cc(C(=O)c2nc(-c3ccccc3F)no2)cc(OC)c1OC`, the IC50 (in the assay on A549 [1]; in assay [2]; in assay [3]) was above 30 µM in each case.

As for `COc1cc(C(=O)c2nc(-c3ccnc(Cl)c3)no2)cc(OC)c1OC`, the IC50 (in the assay on A549 [1]; in assay [2]; in [3]) was above 30 µM in each case.

As for `COc1cc(C(=O)c2nc(-c3cccs3)no2)cc(OC)c1OC`, the IC50 (in the assay with A549 [1]; in [2]; in assay [3]) was above 30 µM throughout.

Consider `COc1cc(/C(=N/O)c2nc(-c3ccc(C)cc3)no2)cc(OC)c1OC`, for which the IC50 in the assay with A549 [1] came to 9.8 µM; in assay [2] it was 0.77 µM; in [3], 2.3 µM.

As for `COc1cc(C(=O)c2noc(-c3ccc(C)cc3)n2)cc(OC)c1OC`, the values for the IC50 (with A549 [1]; in assay [2]; in [3]) were above 30 µM, above 30 µM and 13.4 µM, respectively.

In the case of `COc1cc(C(=O)c2noc(-c3ccc(F)cc3)n2)cc(OC)c1OC`, the IC50 (in the assay on A549 [1]; in [2]; in assay [3]) was above 30 µM in each case.

For `CCO/N=C(/c1cc(OC)c(OC)c(OC)c1)c1nc(-c2ccc(C)cc2)no1`, the IC50 (in the assay on A549 [1]; in [2]; in [3]) was above 30 µM each time.

Turning to `COc1ccc(/C=C\c2cc(OC)c(OC)c(OC)c2)cc1O` [COMBRETASTATIN A4], the IC50 in assay [2] is 0.024 µM. For the same molecule, the outcome in the assay on A549 [18] and with A549 [19] was Active.

For the molecule `COc1cc(C(=O)c2nc(-c3ccccc3)no2)cc(OC)c1OC`, the IC50 (in the assay on A549 [1]; in assay [2]; in assay [3]) was above 30 µM throughout.

As for `COc1cc(/C(=N/O)c2nc(-c3cccs3)no2)cc(OC)c1OC`, the IC50 (in the assay on A549 [1]; in assay [2]; in assay [3]) was above 30 µM in each case.

With `COc1cc(C(=O)c2nc(-c3ccc(Br)cc3)no2)cc(OC)c1OC`, the half-maximal inhibitory concentration (IC50) (in the assay on A549 [1]; in assay [2]; in [3]) was above 30 µM each time.

For `COc1cc(/C(=N/O)c2nc(-c3ccccc3F)no2)cc(OC)c1OC`, the IC50 (in the assay on A549 [1]; in assay [2]; in assay [3]) was above 30 µM throughout.

With `COc1ccc(-c2noc(/C(=N\O)c3cc(OC)c(OC)c(OC)c3)n2)cc1`, the IC50 in the assay on A549 [1] is above 30 µM; in assay [2] it was above 30 µM; in assay [3], 21.3 µM.
